Laboratory results reported in PMC11921695 (BMC Cancer, 2025).
Values joined by “and” are separate entries in the source; they are usually repeats but may differ in a detail not shown here. Identical values can stand only once. “Also recorded” adds a separate entry of the source.

What was measured:
[1] = test system: Ang-1; experiment: Serum angiogenic marker ELISA; assay type: in vivo, human; conditions: end of cycles 1, 2, 4 and 6 vs pre-dose cycle 1 day 1; any dose
Protocol: (§1) Pharmacodynamic measures were assessed by percentage changes in serum angiogenic markers and correlated with tumour response. The baseline used was that measured at cycle visit 1 day 1 pre-selumetinib treatment. Analysis of longitudinal data was performed using a mixed effects repeated measured regression, with a trend line and 90% CI derived using the fixed effect estimates from the model.
(§2) Circulating angiogenic biomarkers on cycle 1 day 1 pre-treatment, cycle 2 day 1, cycle 3 day 1, cycle 5 day 1 and end of cycle 6 (all ±1 day except cycle 1 day 1 pre-treatment).
(§3) HIV-1 viral load and CD4 counts were measured as per standard of care at hospital sites. To measure the concentration of angiogenesis markers, 8.5 ml blood was collected in BD vacutainer no-additive serum tubes. Samples were kept at room temperature for 30 minutes before centrifugation at 2000 g for 20 minutes at room temperature. Serum samples were then stored at -80 °C prior to analysis. Serum Ang-1, Ang-2 and TIE levels were assessed using commercial ELISAs (Thermo Fisher Scientifc hAng-1 (EHANGPT1), R&D DuoSet Ang-2 (DY623), eBioscience hTIE2 (BMS2042)), according to manufacturer instructions at laboratories at the University of Sheffield.

[2] = test system: Tie-2; experiment: Serum angiogenic marker ELISA; assay type: in vivo, human; conditions: end of cycles 1, 2, 4 and 6 vs pre-dose cycle 1 day 1; any dose
Protocol: as §1, §2, §3

[3] = test system: Ang-2; experiment: Serum angiogenic marker ELISA; assay type: in vivo, human
Protocol: as §1, §2, §3

[4] = test system: embryofoetal development and survival; set-up: method as in SCART protocol 7.3.1; conditions: at dose levels that do not induce maternal toxicity in mice; ref SCART protocol 7.3.1; cited from earlier work
[5] = test system: patients with HIV-associated KS; experiment: Phase I 3 + 3 dose escalation: dose limiting toxicity, MTD/RP2D; assay type: in vivo, human; conditions: for occurrence of DLT: cycle 1
Protocol: The trial used a standard 3 + 3 rule-based dose escalation algorithm with four pre-defined dose levels. […] A dose of 75 mg once daily (od) provided a dose level below the starting dose should de-escalation be required.
The aim of the phase I component of the trial was to determine the maximum tolerated dose (MTD) of selumetinib in combination with ART, which was defined as the highest dose producing one or fewer DLT in six patients. This dose was defined as the recommended phase II dose (RP2D) for the subsequent phase II component of the trial. Patients recruited to phase I who received the RP2D as their initial dose were included in the phase II population for response analysis. Having completed six cycles of treatment, patients who responded to treatment were permitted to continue selumetinib with ART at the discretion of the treating physician. Patients concurrently received best supportive therapy according to institutional guidelines.
The occurrence of DLTs was used to evaluate the safety of each dose level and thereby determine the MTD which defined the RP2D.
• Haematological. • Absolute neutrophil count (ANC) < 1.0 × 10^9/L. • Febrile neutropenia (ANC < 1.0 × 10^9/L, fever ≥ 38 °C). • Platelets < 50 × 10^9/L. • Bleeding thought to be due to thrombocytopenia. • Non-haematological. • Diarrhoea ≥ grade 3 despite optimal loperamide use. • Rash ≥ grade 3. • Any grade 2 toxicity unacceptable to the patient that required a dose reduction. • Missing > 30% of treatment doses for toxicity reasons. • Any other grade 3 or 4 effects thought to be treatment related. • HIV control. • Clinically necessary change in ART drug levels due to detrimental alteration in HIV viral load and/or CD4 cell count.

[6] = test system: HIV-1; experiment: HIV control: HIV-1 viral load; assay type: in vivo, human; conditions: during the trial, patients receiving selumetinib + ART
Protocol: (§4) HIV control was assessed by plotting longitudinal HIV-1 viral load and CD4 cell counts over time for the per-protocol population. Due to missing data at the pre-treatment cycle 1 […] visit, the CD4 cell counts from the screening visit were used as the baseline comparator. Paired t-tests were done to test the difference between CD4 cell counts at screening, cycle 3 day 22 and cycle 6 day 22. Due to multiple testing, a Bonferroni correction was applied to the significance threshold, calculated as 0.05 ÷ 2 = 0.025.
as §3

[7] = test system: p38 and JNK; set-up: method as in Banerji, et al.; conditions: protocol background; ref Banerji, et al.; cited from earlier work
[8] = test system: patients with HIV-associated KS; experiment: Number of selumetinib cycles completed and reasons for discontinuation; assay type: in vivo; conditions: 6/16 participants
Description: Reasons for discontinuation were reported in relation to the number of cycles received.

[9] = test system: CD4 cell counts; experiment: HIV control: CD4 cell counts; assay type: in vivo, human
Protocol: as §4, §3

[10] = Selumetinib and N-desmethyl selumetinib plasma levels (phase I pharmacokinetics); assay type: in vivo; conditions: for Selumetinib Concentration, 2 Hours Post-Dose / Selumetinib Concentration, 6 Hours Post-Dose / Selumetinib Concentration, Day 1 Pre-Dose: plasma, individual patients; for Selumetinib Concentration, 2 Hours Post-Dose / Selumetinib Concentration, 6 Hours Post-Dose: cycle 1 day 1
Protocol: Pharmacokinetic studies will be performed in phase I only . […]
compartmental analysis will estimate C max, AUC0-24 , clearance and t1/2 from per ipheral blood measurements of both AZD 6244 and its metabolites pr e- dose, and at 2 and 6 hours post dose on day 1 and pre- dos e day 15. Labor atory bioanalysis will be performed by Quotient […]
• Samples to be collected Cycle 1 Day 1 Pre -treatment, 2 hours and 6 hours post dose (aft er f irst set of tablets) pre- dose Cycle 1 Day 15.
• 5mls of venous blood should be collected into a K2- ED TA BD vacutainer • Samples should be inverted several times to ensure adequate mix ing. […]
• 2x 500µ l of plasma should be aliquoted to polypropylene eppendorf tubes.
• Tubes should be individually labeled with the patient’s study number and sample time- point.
• Samples should be stored at - 200C.
• 1 x sample to be transferred on dry ice to Quotient Bioresearch for bioanalysis (all four sample time- points day 1 pre- d ose, and at 2 and 6 hours post d ose and pre- dose day 1 5 can be shipped together – please refer to the Laboratory Manual for c ourier details).
• 1 x sample to be stored at the study centre as back-up.

[11] = test system: non-small cell lung cancer; set-up: method as in SCART protocol 7.3.1; conditions: combination arm; ref SCART protocol 7.3.1; cited from earlier work
[12] = test system: Japanese patients, NSCLC; set-up: method as in study D1532C00067; conditions: selumetinib + Docetaxel, ref study D1532C00067; cited from earlier work
[13] = test system: patients with advanced cancer; set-up: method as in Banerji, et al.; conditions: ref Banerji, et al., cited from earlier work

For Cn1cnc2c(F)c(Nc3ccc(Br)cc3Cl)c(C(=O)NOCCO)cc21 [selumetinib, 6-(4-Bromo-2-chloro-phenylamino)-7-fluro-3-methyl-3 H-benzoimidazole-5-carboxylic acid (2-hydroxy-ethoxy)-amide hydrogen sulphate], the “change in circulating level of Ang-1” value [1] was “no significant changes”, the “change in circulating level of Tie-2” value [2] was “no significant changes; also recorded: no changes were observed” and the “change in circulating level of Ang-2” value ([3]; end of cycles 1, 2, 4 and 6 vs pre-dose cycle 1 day 1, any dose) was “no significant changes”. The “serum levels of Ang-2 on treatment compared to baseline (trend)” value ([3]; on selumetinib treatment) was “tended to be lower”, the reproductive toxicology finding [4] was “adverse effects on embryofoetal” and the “nature of the DLT” value ([5]; 75 mg bd, single event, possibly related, resolved with no sequelae) was “asymptomatic concurrent increase in serum amylase and raised eosinophils, both grade 3”. The “occurrence of DLT” value ([5]; four patients starting 50 mg bd) was “None”, the “maximum tolerated dose (MTD) / recommended phase II dose (RP2D)” value ([5]; selumetinib orally in combination with ART, highest dose producing one or fewer DLT in six patients) was 75 mg bd and the “occurrence of DLT” value ([5]; six phase I patients starting 75 mg bd) was “one and 1 out of 6”. For the same molecule, the HIV-1 viral load [6] was “remained undetectable”, the “activity against other kinases including p38 and JNK” value [7] was “inactive, or minimally active” and the “participants who discontinued selumetinib due to toxicity before completing six cycles” value [8] was 37.5%. The “mean increase in CD4 cell counts” value ([9]; cycle 3 day 22 vs screening, per-protocol population, 95% CI: 41.91, 280.63, p = 0.013) was 161.27 cells/mm^3, the “increase in CD4 cell counts” value ([9]; cycle 6 day 22 vs pre-treatment, 95% CI: 31.87, 273.47, p = 0.023) was 152.67 cells/mm^3 and the “plasma levels compared with other selumetinib studies” value ([10]; phase I, comparison with refs 19-22) was “consistent with published reports from other selumetinib studies”. For the same molecule, the “Selumetinib Concentration, 2 Hours Post-Dose” value ([10]; starting dose 50 mg bd) was 201 ng/mL and 304 ng/mL and 238 ng/mL and 274 ng/mL, the “Selumetinib Concentration, 6 Hours Post-Dose” value ([10]; starting dose 50 mg bd) was 26.5 ng/mL and 48.5 ng/mL and 47.9 ng/mL and the “Selumetinib Concentration, 2 Hours Post-Dose” value ([10]; starting dose 75 mg bd) was 1280 ng/mL and 1250 ng/mL and 361 ng/mL and 247 ng/mL and 504 ng/mL and 1040 ng/mL. For the same molecule, the “Selumetinib Concentration, 6 Hours Post-Dose” value ([10]; starting dose 75 mg bd) was 249 ng/mL and 180 ng/mL and 284 ng/mL and 452 ng/mL and 66.1 ng/mL, the “Selumetinib Concentration, Day 1 Pre-Dose” value ([10]; starting dose 50 mg bd) was “BLQ” and the “Selumetinib Concentration, Day 1 Pre-Dose” value ([10]; starting dose 75 mg bd) was “BLQ”. For the same molecule, the “febrile neutropenia CTCAE grade 3, patients” value [11] was 6/44, the “febrile neutropenia CTCAE grade 4, patients” value [11] was 2/44 and the “febrile neutropenia, patients treated” value [12] was 3 of 8. For the same molecule, the “dose identified as both safe and tolerable” value ([13]; selumetinib monotherapy) was 75 mg bd and the “mean decrease in left ventricular ejection fraction (LVEF)” value ([13]; week 8, range -25% to +10%) was -7.2%.
